# Columns and labels:
# [1] = test system: human hepatoblastoma cell line HepG2; assay: Cytotoxic activity on HepG2 (hepato-toxicity); format: cell-based; conditions: HepG2, up to highest concentration tested
# Description: (§1) Sulforhodamine B (SRB) assay was used according to the method by Skehan et al. (JNCI, 1990). Briefly, cells were collected by trypsinization, counted and plated at a density of 5,000 cells/well in 96-well flat-bottomed microtiter plates (100 μl of cell suspension/well). In the chemosensitivity assay, experiments were run in octuplicate, and each experiment was repeated three times. The optical density (OD) of cells was determined at a wavelength of 490 nm by a colorimetric plate reader.
# (§2) If ODtreated is above ODzero, treatment has induced a cytostatic effect, whereas if ODtreated is below ODzero, cell killing has occurred. The ODzero depicts the cell number at the moment of drug addition, the ODcontrol reflects the cell number in untreated wells and the ODtreated reflects the cell number in treated wells on the day of the assay.
# FIG. 27-36 show the cytotoxic activity of the drugs on the human hepatoblastoma cell line HepG2. The authors evaluated in vitro the potential hepato-toxicity of some of the novel compounds on HepG2 cell line, a human hepatoblastoma cell line that retains the specialized function of normal hepatocytes [Knowles B B, Howe C C, Aden D P. Human hepatocellular carcinoma cell lines secretes the major plasma proteins and hepatitis B surface antigen. Science 1980, 209:497-499; Aden D P, Vogel A, Plortkin S, Damjanov I, Knowles B B. Controlled synthesis of HBS Ag in a differentiated human liver carcinoma-derived cell line. Nature, 1979, 282:615-616].
# [2] = target: T1, human androgen receptor (hAR) (Homo sapiens, UniProt P10275); assay: hAR transactivation assay (ARE-luc) in Cos-7 cells; format: cell-based; conditions: for inhibition of R1881-induced AR transcriptional activation (antagonistic activity), in words: compound 10 μM with 10 nM R1881; for agonistic activity on AR transcription, in words: compound alone, 10 nM to 1 μM or 10 μM
# T1 construct: expressed in transfected cells; host or cells: Cos-7
# T1 sequence (P10275 1-920): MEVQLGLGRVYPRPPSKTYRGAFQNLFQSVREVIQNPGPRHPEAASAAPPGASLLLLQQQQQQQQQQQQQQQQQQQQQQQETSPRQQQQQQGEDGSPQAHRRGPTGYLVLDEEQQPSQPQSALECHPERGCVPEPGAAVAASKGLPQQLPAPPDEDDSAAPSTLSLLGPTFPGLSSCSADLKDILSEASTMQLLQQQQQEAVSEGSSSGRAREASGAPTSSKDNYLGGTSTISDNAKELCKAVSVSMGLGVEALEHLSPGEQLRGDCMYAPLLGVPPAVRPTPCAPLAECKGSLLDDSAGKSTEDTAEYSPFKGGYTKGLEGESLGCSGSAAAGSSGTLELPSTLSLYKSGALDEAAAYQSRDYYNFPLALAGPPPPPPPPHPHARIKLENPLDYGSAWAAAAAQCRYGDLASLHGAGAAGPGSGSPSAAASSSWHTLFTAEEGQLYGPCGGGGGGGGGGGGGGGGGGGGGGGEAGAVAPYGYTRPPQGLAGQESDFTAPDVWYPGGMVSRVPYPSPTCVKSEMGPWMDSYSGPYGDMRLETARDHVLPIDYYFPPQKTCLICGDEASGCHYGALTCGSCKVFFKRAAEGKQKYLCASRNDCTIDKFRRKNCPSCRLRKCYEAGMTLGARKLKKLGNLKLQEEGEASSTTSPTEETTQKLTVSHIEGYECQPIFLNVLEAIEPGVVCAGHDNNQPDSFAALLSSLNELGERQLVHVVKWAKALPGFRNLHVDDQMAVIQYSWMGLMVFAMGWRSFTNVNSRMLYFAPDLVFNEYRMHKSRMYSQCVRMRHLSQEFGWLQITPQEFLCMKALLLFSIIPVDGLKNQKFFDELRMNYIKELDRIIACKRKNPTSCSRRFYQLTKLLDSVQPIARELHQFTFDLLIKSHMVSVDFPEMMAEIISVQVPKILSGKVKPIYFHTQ
# From the text: The cDNA coding hAR was cloned into the pSG5 expression vector as reported previously [Chang, C. S., J. Kokontis, and S. T. Liao 1988 Molecular cloning of human and rat complementary DNA encoding androgen receptors Science 240:324-326].
# The 3416 construct (ARE-Luc), containing four copies of the wild-type slp-HRE2 (5′-TGGTCAgccAGTTCT-3′) was cloned in the NheI site in pTK-TATA-Luc [Verrijdt, G., E. Schoenmakers, A. Haelens, B. Peeters, G. Verhoeven, W. Rombauts, and F. Claessens 2000 Change of specificity mutations in androgen selective enhancers J. Biol. Chem. 275:12298-12305].
# For androgen-stimulated transcriptional analysis, 32×10^4 Cos-7 cells were plated in phenol red-free DMEM containing 5% charcoal-stripped serum. After 48 h, the cells were transfected by Superfect (Qiagen) with 0.3 μg of 3416-pTK-TATA-Luc construct, together with 1.5 μg of either pSG5-empty plasmid or pSG5-hAR expressing plasmid. […] When indicated, the synthetic compounds were added alone to the cell medium. […] It was dissolved in 0.001% (final concentration) ethanol. Control cells were treated with the vehicle alone. Lysates were prepared and the luciferase activity was measured using a luciferase assay system (Promega). The results were corrected using CH110-expressed beta-galactosidase activity (Amersham Biosciences) and luciferase activity was expressed as fold induction. Results were obtained from two or three different experiments, each performed in duplicate. Mean and SEM are shown.
# LNCaP-AR cells = assay: SRB in vitro chemosensitivity assay, LNCaP-AR; format: cell-based; conditions: for GI50: Homo sapiens, LNCaP/AR; for GI50 / cytotoxic effect (cytostatic / cytocidal), in words: 144 h; for LC50: LNCaP-AR cells, 144 h exposure; for LC50 / cytotoxic effect (cytostatic / cytocidal), in words: up to 20 μM; for cytotoxic effect (cytostatic / cytocidal), in words: LNCaP-AR
# Description: (§3) The cell lines were maintained as a monolayer at 37° C. and subcultured weekly. Culture medium was composed of RPMI 1640 supplemented with 10% fetal calf serum and 1% glutamine (Mascia Brunelli s.p.a., Milan, Italy). Cells were used in the exponential growth phase in all the experiments.
# (§4) Compounds were dissolved in acetone or DMSO (AITES) ([…]) and stored at −20° C. The cell culture containing acetone at the highest concentration was used as the control.
# as §1, §2
# (§5) FIGS. 2-11 show the cytotoxic activity of the derivative compounds of the invention on the LNCaP and LNCaP-AR cell lines. The authors examined the antitumour activity of the compounds for which the synthesis is described above, in the hormone-sensitive prostate cancer cell line LNCaP and in its derivative cell line LNCaP-AR, expressing high level of AR and with hormone refractory prostate cancer (HRPC) features. The novel compounds were tested at the increasing concentrations of […], 0.2, 2.0, and 20.0 μM. The highest dose used was chosen on the basis of the clinically achievable peak plasma concentration reported in the literature for bicalutamide (Cockshott I D. Clin Pharmacokinet. 2004; 43(13): 855-78). After 144-hr exposure time the cytotoxic effect of the molecules was calculated according to the method of Monks et al. (Monks A, Scudiero D, Skehan P, et al. Feasibility of a high-flux anticancer drug screen using a diverse panel of cultured human tumor cell lines. J Natl Cancer Inst. 1991; 83: 757-66.)
# DU145 cell line = assay: SRB cytotoxicity, DU145; format: cell-based, human; conditions: DU145 (no AR), 144 h, up to 20 μM
# Description: (§6) FIGS. 16-25: cytotoxic effect of compounds (R)-XXIII-2, (R)-XXIII-3, (R)-XXIII-4, (R)-XXIII-5, (R)-XXIII-6, (R)-XXIII-7, (R)-XXIII-8, (R)-XXIII-9, (R)-XXIII-10, (R)-XXIV-9 on PC-3 and DU-145 cell lines at different concentration (0.02, 0.2, 2, 20 μM) after 144 h exposure. On the x-axis is reported the concentration, while on the y-axis is reported the inhibition of the net growth (% net growth).
# as §1, §2
# LNCaP cells = assay: SRB in vitro chemosensitivity assay, LNCaP; format: cell-based; conditions: for GI50: Homo sapiens; for GI50 / cytotoxic effect (cytostatic / cytocidal), in words: LNCaP, 144 h; for LC50: LNCaP cells, 144 h exposure; for LC50 / cytotoxic effect (cytostatic / cytocidal), in words: up to 20 μM
# Description: as §3, §4, §1, §2, §5
# PC-3 cell line = assay: SRB cytotoxicity, PC-3; format: cell-based, human; conditions: PC-3 (no AR), 144 h, up to 20 μM
# Description: as §6, §1, §2
Compound,"hepato-toxicity, in words [1]","inhibition of R1881-induced AR transcriptional activation (antagonistic activity), in words [2]","agonistic activity on AR transcription, in words [2]",GI50 (LNCaP-AR cells) [µM],LC50 (LNCaP-AR cells),"cytotoxic effect (cytostatic / cytocidal), in words (LNCaP-AR cells)","cytotoxic activity, in words (DU145 cell line)",GI50 (LNCaP cells) [µM],LC50 (LNCaP cells),"cytotoxic effect (cytostatic / cytocidal), in words (LNCaP cells)","cytotoxic activity, in words (PC-3 cell line)"
N#Cc1ccc(NC(=O)[C@](O)(Cc2ccccc2)CS(=O)(=O)c2ccc(F)cc2)cc1C(F)(F)F [(R)-XXIII-3],did not display toxicity,A more robust inhibition,do not exhibit agonistic activity,6.2,n.r.,suppress completely the cell growth,negligible cytotoxic activity,1.8,n.r.,suppress completely the cell growth,negligible cytotoxic activity
N#Cc1ccc(NC(=O)[C@@](O)(CS(=O)(=O)c2ccc(F)cc2)c2ccccc2)cc1C(F)(F)F [(R)-XXIII-8],did not display toxicity,–,does not increase the transcriptional activity of AR,11.6,n.r.,suppress completely the cell growth,negligible cytotoxic activity,11.8,n.r.,suppress completely the cell growth,negligible cytotoxic activity
N#Cc1ccc(NC(=O)[C@](O)(Cc2ccc(F)cc2)CS(=O)(=O)c2ccc(F)cc2)cc1C(F)(F)F [(R)-XXIII-4],did not display toxicity,A more pronounced inhibition,–,7.5,n.r.,suppress completely the cell growth,negligible cytotoxic activity,7,n.r.,suppress completely the cell growth,negligible cytotoxic activity
